According to the supplement of paper PMC3493320:

System: NCI-H295R
Experiment: IC50 (antiproliferative, ATP content)
Conditions: 48 h
Procedure, shortened: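 In 1536-well plates, 1500 adrenocortical carcinoma cells per well were grown overnight in serum-free, ITS-supplemented DMEM before compounds were pin-transferred at 8 final concentrations (0.6 nM to 46 µM). After 48 h at 37 °C and 5% CO2, CellTiter-Glo luminescence was read following 20 min at room temperature and normalised to vehicle and positive-control wells. IC50 values came from logistic curve fits, with compounds lacking any concentration response listed as above the top dose.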

IC50	SMILES
> 46 µM	CC(C)COCC(CN(Cc1ccccc1)c1ccccc1)N1CCCC1 (stereo not given)
> 46 µM	CN(C)[C@@H]1C(O)=C(C(N)=O)C(=O)[C@@]2(O)C(O)=C3C(=O)c4c(O)cccc4[C@@](C)(O)[C@H]3C[C@@H]12.Cl
> 46 µM	CCc1c2c(nc3ccc(OC(=O)N4CCC(N5CCCCC5)CC4)cc13)-c1cc3c(c(=O)n1C2)COC(=O)[C@]3(O)CC.Cl
> 46 µM	O=C1O[C@H]([C@@H](O)CO)C(O)=C1O
> 46 µM	C[S+](C)CCC(N)C(=O)O.[Cl-] (stereo not given)
> 46 µM	CN(C)CCOC(=O)COc1ccc(Cl)cc1.Cl
> 46 µM	O=C(CCCN1CC=C(n2c(=O)[nH]c3ccccc32)CC1)c1ccc(F)cc1
> 46 µM	CC(CN1c2ccccc2Sc2ccccc21)N(C)C (stereo not given)
> 46 µM	O=C1c2c(O)cccc2Cc2cccc(O)c21
> 46 µM	O=C(CCN1CCN2CCCC2C1)N1c2ccccc2Sc2ccc(Cl)cc21 (stereo not given)
> 46 µM	CC(=O)Oc1ccc(C(c2ccc(OC(C)=O)cc2)c2ccccn2)cc1
> 46 µM	CCCCOc1cc(C(=O)NCCN(CC)CC)c2ccccc2n1
> 46 µM	NC(CSCC(=O)O)C(=O)O (stereo not given)
> 46 µM	CC1(C)CO[C@@H](CC(=O)O)CN1
> 46 µM	Nc1nnc(-c2cccc(Cl)c2Cl)c(N)n1
> 46 µM	CCOC(=O)c1ncn2c1CN(C)C(=O)c1cc(F)ccc1-2
> 46 µM	O=C(O)CCC(=O)c1ccc(-c2ccccc2)cc1
> 46 µM	N[C@@H](CSCCCO)C(=O)O
> 46 µM	CC(C)NCC(O)COc1ccccc1-n1cccc1 (stereo not given)
> 46 µM	C1[C@@H]([C@H]([C@@H]([C@H]([N@]1CCO)CO)O)O)O
> 46 µM	O=C(O)c1cccnc1Nc1cccc(C(F)(F)F)c1

IC50	SMILES
> 46 µM	COc3ccccc3N2CCN(CCCN\C1=C\C(=O)N(C)C(=O)N1C)CC2
> 46 µM	NC(=O)c1cc[n+](CC2=C(C(=O)[O-])N3C(=O)[C@@H](NC(=O)Cc4cccs4)[C@H]3SC2)cc1
> 46 µM	CC(=O)Oc1cc(C(F)(F)F)ccc1C(=O)O
> 46 µM	O=P(O)(O)CP(=O)(O)O
> 46 µM	O=S(C1=CC=CC2=C1NC[C@H](C)C2)(N[C@@H](CCCNC(N)=N)C(N3[C@@H]([C@](O)=O)C[C@H](C)CC3)=O)=O
> 46 µM	O=C(C)N(CC4)CCN4C(C=C5)=CC=C5OC[C@]2([H])O[C@@](OC2)(CN3C=NC=C3)[C@@]1=CC=C(Cl)C=C1Cl
> 46 µM	CC(C)(C)NC(=O)[C@H]4CC[C@@H]3[C@]4(C)CC[C@H]1[C@H]3CC[C@H]2NC(=O)\C=C/[C@]12C
> 46 µM	C[C@]12CC[C@@H]3c4ccc(O)cc4CC[C@H]3[C@@H]1CC[C@@H]2OP(=O)(O)O
> 46 µM	OC[C@H]1O[C@@H](O[C@@H]2[C@@H](CO)O[C@](O)(CO)[C@H]2O)[C@H](O)[C@@H](O)[C@H]1O
> 46 µM	CC(C)NCC(O)COc1cccc2[nH]ccc12 (stereo not given)
> 46 µM	CCN(Cc1ccncc1)C(=O)C(CO)c1ccccc1 (stereo not given)
> 46 µM	[C@@]2\1(\C(=C/C(/C=C/1)=O)[C@H](C[C@@H]4[C@@H]2[C@H](C[C@@]3([C@](C(=O)CO)(O)CC[C@H]34)C)O)C)C
> 46 µM	CCc1ccc(S(=O)(=O)O)cc1
> 46 µM	FC(F)(F)C(F)(F)C(F)(F)C(F)(F)C(F)(F)F
> 46 µM	CC(CNC(=O)c1cccnc1)NC(=O)c1cccnc1 (stereo not given)
> 46 µM	O=C([O-])c1cc(N=Nc2ccc(O)c(C(=O)[O-])c2)ccc1O.[Na+].[Na+]
> 46 µM	C=CCOc1ccccc1OCC(O)CNC(C)C.Cl (stereo not given)
> 46 µM	CCN(CC)Cc1cc(Nc2ccnc3cc(Cl)ccc23)ccc1O.Cl.Cl.O.O
> 46 µM	NC[C@@H]1CC[C@@H](N)[C@@H](O[C@H]2[C@H](O)[C@@H](O[C@H]3O[C@H](CO)[C@@H](O)[C@H](N)[C@H]3O)[C@H](N)C[C@@H]2N)O1
> 46 µM	CN(C)CC/C=C1/c2ccccc2COc2ccc(CC(=O)O)cc21.Cl
> 46 µM	CC(=O)OCC(=O)[C@H]2CC[C@H]3[C@@H]4CC\C1=C\C(=O)CC[C@]1(C)[C@H]4CC[C@]23C

IC50	SMILES
> 46 µM	COc1cc(C(=S)N2CCOCC2)cc(OC)c1OC
> 46 µM	CO/N=C(\C(=O)N[C@@H]1C(=O)N2C(C(=O)O)=C(C[N+]3(C)CCCC3)CS[C@H]12)c1csc(N)n1.Cl.O.[Cl-]
> 46 µM	CC(=O)Nc1c(I)c(C(=O)[O-])c(I)c(N(C)C(C)=O)c1I.[Na+]
> 46 µM	NS(=O)(=O)c1ccc(C(=O)O)cc1
> 46 µM	O=[C@](C)[C@@H]3[C@](CC2)(C)[C@](CC3)([H])[C@@]1([H])[C@@]2([H])[C@](CC[C@H](O)C4)(C)C4=CC1
> 46 µM	C=C1C[C@H]2[C@@H]3C=C(C)C4=CC(=O)CC[C@]4(C)[C@H]3CC[C@]2(C)[C@@]1(OC(C)=O)C(C)=O
> 46 µM	Nc1ccc(C(=O)Oc2ccccc2)c(O)c1
> 46 µM	Cl.O=C(O)/C=C/c1ccc(Cn2ccnc2)cc1
> 46 µM	NS(=O)(=O)c1cc2c(cc1Cl)NC(C(Cl)Cl)NS2(=O)=O (stereo not given)
> 46 µM	CCC(=O)Nc1ccc(O)cc1
> 46 µM	CNC(=O)OCc1cccc(COC(=O)NC)n1
> 46 µM	O=C([O-])P(=O)([O-])[O-].[Na+].[Na+].[Na+]
> 46 µM	O=C(O)CN(CCOCCOCCN(CC(=O)O)CC(=O)O)CC(=O)O
> 46 µM	O=C(O)[C@@H]1C[C@H](CP(=O)(O)O)CCN1
> 46 µM	CN(C)CC\C2=C\Nc1ccc(cc12)Cn3cncn3
> 46 µM	Cc1cc(O)cc(C)c1Cl
> 46 µM	O=C(CCCN1CCN2CCCC2C1)c1ccc(F)cc1 (stereo not given)
> 46 µM	C[C@@H](O)[C@H]1C(=O)N2C(C(=O)[O-])=C(SC3Cn4cnc[n+]4C3)[C@H](C)[C@H]12 (stereo not given in full)
> 46 µM	CC1=C(/C=C/C(C)=C/C=C/C(C)=C/C=C/C=C(C)/C=C/C=C(C)/C=C/C2=C(C)C(=O)CCC2(C)C)C(C)(C)CCC1=O
> 46 µM	CN(C)C(=S)SC(=S)N(C)C
> 46 µM	C=C1c2cccc(O)c2C(=O)C2=C(O)[C@]3(O)C(=O)C(C(N)=O)=C(O)[C@@H](N(C)C)[C@@H]3[C@@H](O)[C@H]12.Cl

IC50	SMILES
> 46 µM	C/C(=N\Cc1ccccc1)c1ccccc1O
> 46 µM	N/C(N)=N/C1=NC(CSCCC(N)=NS(N)(=O)=O)=CS1
> 46 µM	COc1cc(C(=O)N2CCCCCCC2)cc(OC)c1OC
> 46 µM	CCN(CC)CCNC(=O)c1cc(Cl)c(N)cc1OC
> 46 µM	COc1ccc(/C=N/NC(=O)c2ccncc2)cc1OC
> 46 µM	CC(=O)OCC1=C(C(=O)O)N2C(=O)[C@@H](NC(=O)Cc3cccs3)[C@H]2SC1
> 46 µM	O=C1C=CC([C@](N)2CC(C)=C3)=C(C[C@H]3/[C@]2=C\C)N1
> 46 µM	O=C3N1/C(=C(\CS[C@@H]1[C@@H]3NC(=O)Cc2ccccc2CN)CSc4nnnn4CC(O)=O)C(O)=O
> 46 µM	CN1CCN(CCC(=O)N2c3ccccc3Sc3ccc(C(F)(F)F)cc32)CC1
> 46 µM	CC(CCc1ccc(O)cc1)NCCc1ccc(O)c(O)c1 (stereo not given)
> 46 µM	C[C@]12CCC(=O)C=C1C=C[C@@H]1[C@@H]2CC[C@@]2(C)[C@H]1CC[C@@]21CCC(=O)O1
> 46 µM	O=C(O)c1ccc(OCCn2ccnc2)cc1
> 46 µM	NC12CC3CC(CC(C3)C1)C2
> 46 µM	CC(=O)N[C@@H](CC(=O)N[C@@H](CCC(=O)O)C(=O)O)C(=O)O
> 46 µM	O=[C@](CO)[C@@H]2[C@](CC1)(C)[C@](CC2)([H])[C@@](CC4)([H])[C@@]1([H])[C@](CC3)(C)C4=CC3=O
> 46 µM	C=CCNC(N)=S
> 46 µM	CC(C)(O/N=C(\C(=O)N[C@@H]1C(=O)N2C(C(=O)[O-])=C(C[n+]3ccccc3)CS[C@H]12)c1csc(N)n1)C(=O)O.O.O.O.O.O
> 46 µM	CC(N)C(=O)OC(C)(C)Cc1ccc(Cl)cc1 (stereo not given)
> 46 µM	COc1ccccc1N1CCN(CC(O)COc2cccc3ccccc23)CC1 (stereo not given)
> 46 µM	C[C@@](Cc1ccc(O)c(O)c1)(NN)C(=O)O

SMILES	IC50
CCN(CC)CCN1C(=O)CN=C(c2ccccc2F)c2cc(Cl)ccc21	> 46 µM
COP(=S)(OC)SCN1C(=O)c2ccccc2C1=O	> 46 µM
CC(C)c1c(CN(C)C(C)Cc2ccccc2)n(C)n(-c2ccccc2)c1=O (stereo not given)	> 46 µM
Clc1ccc(C2(Cn3cncn3)OCCO2)c(Cl)c1	> 46 µM
CCCCCCCCCC(=O)O[C@H]2CC[C@H]3[C@@H]4CC\C1=C\C(=O)CC[C@@H]1[C@H]4CC[C@]23C	> 46 µM
CCN(C)C(=O)Oc1cccc([C@H](C)N(C)C)c1.O=C(O)[C@@H](O)[C@H](O)C(=O)O	> 46 µM
O=C(CCl)c1ccc(Oc2ccc(C(=O)CCl)cc2)cc1	> 46 µM
O=[C@](OCC2=C(F)C(F)=CC(F)=C2F)[C@H]1C(C)(C)[C@@H]1/C=C(Cl)/Cl	> 46 µM
C=CCC1(C(C)CCC)C(=O)N=C([S-])NC1=O.[Na+] (stereo not given)	> 46 µM
Br.COc1ccc2c(c1)[C@]13CCCC[C@@H]1[C@H](C2)N(C)CC3.O	> 46 µM
CC(C)NCC(O)COc1ccc(COCCOC(C)C)cc1.CC(C)NCC(O)COc1ccc(COCCOC(C)C)cc1.O=C(O)/C=C/C(=O)O (stereo not given)	> 46 µM
CCS(=O)(=O)C(C)(C)S(=O)(=O)CC	> 46 µM
CN1C(=O)CC(=O)N(c2ccccc2)c2cc(Cl)ccc21	> 46 µM
NCC(O)c1ccc(O)cc1 (stereo not given)	> 46 µM
N#Cc1nn(-c2c(Cl)cc(C(F)(F)F)cc2Cl)c(N)c1S(=O)C(F)(F)F (stereo not given)	> 46 µM
Cc1ccsc1/C=C/C1=NCCCN1C.O=C(O)[C@@H](O)[C@H](O)C(=O)O	> 46 µM
O[C@H]([C@@]1=CC=CC=C1)[C@H](C)N(C)C	> 46 µM
